The values that follow come from paper PMC2816717, “Active Fragments from Pro- and Antiapoptotic BCL-2 Proteins Have Distinct Membrane Behavior Reflecting Their Functional Divergence” (PLoS ONE, 2010).

Series [1] can be described thus: Langmuir monolayer penetration assay, lipid mixture not singled out (Figure 5). It is filed as physicochemical. The following applies: Figure 5A; πi 5 mN/m, peptide 0.2 µM, Hepes pH 7.4, duplicate. From the text: For the biophysical characterization of membrane active protein fragments, we have used Langmuir monolayers as in vitro model of lipid membranes. These supramolecular lipid films formed at the air-water interface are attractive membrane models, widely used for studying peptide-lipid interactions, [56], [57]. We have investigated the binding of peptides derived from the central helices of BAX, BCL-xL and BID at physiological pH with model phospholipid monolayers of a composition that imitates mitochondrial membranes. For this purpose we selected fragments encompassing the sequences corresponding to the first or second α-helices of the core hairpins of BAX, BCL-xL and BID, as defined in the water-soluble protein structures, [17], [19]. Because the structures of those proteins in a membrane environment is currently unavailable, for the case of the first hairpin helix of BAX and BCL-xL (α5) we analyzed both a short version (labeled “S”), including only the reported α-helical residues, and a long version (labeled “L”) that extends a few residues beyond the α-helix stretch at both ends. Divergence of the BID sequence precluded unambiguous alignment with the other two proteins and a similar peptide design. Peptides corresponding to the BH3 domain of BAX, BCL-xL and BID were also included in the study. The sequence and some general properties of the peptides analyzed in this study are described in Table 1 and Figure 1). Lipid mixtures of POPC/DOPE (2∶1) and POPC/DOPE/CL (1∶1∶1) were chosen to mimic the MOM and the contact sites between inner and outer mitochondrial membrane (MIM/MOM), respectively. Penetration assays were carried out at constant area by spreading the lipids at the air-buffer interface, compressing the film at πi = […] and then injecting the peptides into the subphase at a concentration of 0.2 µM (see Material and Methods). Subsequent peptide binding results typically in an increase of surface pressure. Thus, the peptide-monolayer interaction can be characterized by measurable kinetic properties, such as the initial velocity of surface pressure increase (Vi), which informs about the affinity of the peptide for the lipid-water interface, and the final increase of surface pressure (πmax), which can be related to the insertion ability of the peptide into the monolayer.
Figure 5 Changes in surface pressure after peptide injection. Peptides were injected underneath POPC/DOPE or POPC/DOPE/CL monolayers at constant area. A. Final increase of surface pressure πmax (mN/m) obtained for the different peptides. The dashed line denotes the threshold (Δπ = 4.8 mN/m) for significant surface pressure variation as determined using BAX-α5S without lipids (see text). B. Initial velocity of surface pressure increase (Vi = Δπ/s).
Monolayer experiments were performed on a computer-controlled Langmuir film balance (KSV 2000, three multi-compartment system, KSV Instrument Ltd., Finland) working in a symmetrical compression mode and enclosed in an opaque cabinet. The rectangular trough (V = 85 mL ±1 mL, S = 119.25 cm^2) was made of Teflon and the mobile barriers were made in Delrin. The surface pressure, π defined as γ0 – γ, where γ0 is the surface tension of the pure aqueous subphase and γ the surface tension exerted by phospholipids at the subphase surface, was measured by the Wilhelmy's method using a platinum plate with an accuracy of ±0.05 mN/m. The trough was filled with Hepes buffer (pH 7.4), used as subphase and thermostated with a water circulating bath (Lauda E100, LAUDA France, SARL). In all experiments, the subphase temperature was maintained at a constant value of 22.5±0.5°C.
Phospholipid monolayers were formed by deposition of 14 µl of spreading solutions at a clean air/buffer interface by means of a micropipette to reach a final amount of 14 nmol of phospholipids. […]

In series [2] the test system is mitochondria isolated from HEK293T cells. The series is described as follows: Cytochrome c release assay. The note with it: 10 µM peptide, 5 min incubation, 30°C, Western blot of supernatant and pellet. It is filed as biochemical. How it is done: Thus, we tested the ability of the different peptides to induce the release of mitochondrial proteins by incubating them with mitochondria isolated from HEK293T cells, and subsequently assaying the supernatant and pelleted fractions with antibodies for cytochrome c and mitoHSP70. […] On the other hand, incubation of mitochondria with 10 µM BID-α6 induced a slower release, with depletion of the mitochondrial pool of cytochrome c occurring only after 1 hour incubation.
Figure 7 Cytochrome c release assays. Peptides were incubated with isolated mitochondria for the indicated times (min) and the release of cytochrome c was monitored by Western blotting (IB). MitoHSP70 was used as an equal-loading control for the pellet fraction. Control lanes indicate that in the preparation the MOM is intact and cytochrome c is retained within the intermembrane space. A. Cytochrome c release assays for the first (BAX-α5S, BCLX-α5S, BID-α6) and second helices (BAX-α6, BCLX-α6, BID-α7) of the ‘pore domain’ of BAX, BCL-xL and BID using mitochondria isolated from HEK293T cells. B. Cytochrome c release assays for BAX-α5M and BAX-α5MS using mitochondria isolated from MEF and MEK BAX/BAK -/- double knock-out cells (MEF DKO). C. Cytochrome c release assays for the BH3 peptides.
Crude mitochondria were prepared from HEK 293T, mouse embryo fibroblast (MEF) or BAX/BAK double knockout MEF cells (MEF-DKO). In brief, cells were mechanically broken using a 2 ml glass/glass Dounce homogenizer (Kontes) (30 strokes). Homogenates were cleared at 1500 g and mitochondria were spun down at 10 000 g. For cytochrome c release assays, 30 µg of crude mitochondria were resuspended at 1 mg/ml in KCl buffer supplemented with succinate (5 mM) and EGTA (0.5 mM). Peptides (2.5, 10 or 25 µM) were added to the samples and incubations were carried out at 30°C under agitation (300 rpm). At the indicated time points, samples were centrifuged (5 min, 10 000 g, 4°C); supernatants and pellets were recovered and analyzed by immunoblotting for Cytochrome c and mitoHsp70.
For orientation: Immunoblotting shows a protein as a band on a membrane.

In the case of “WGRVVALFYFASKLVLKALSTK [BAX-α5S, short peptide of the first helix (α5) of the central hairpin of BAX]”, the “final increase of surface pressure πmax (insertion), in words” value in series [1] is recorded as “highest increases in surface pressure”. For the same sequence, the “cytochrome c release, in words” value in series [2] is “complete depletion of all mitochondrial cytochrome c”.
